In brackets after ≈: the same amount, converted by molar mass.
Experiments:
[1] = Kinetic aqueous solubility of the compound; format: physicochemical; details: buffer; read-out: Kinetic_solubility
[2] = Stability of compound in rat microsomes assessed as half-life; format: ADME, Microsome
[3] = Permeability of compound by PAMPA assay; format: ADME; details: for Papp: read-out: permeability
[4] = Inhibition of recombinant mouse GALK1 using ATP as substrate incubated for 1 hr and measured by Kinase-Glo assay; details: read-out: IC50

| SMILES | solubility kinetic [1] [µg/mL] | half-life [2] [min] | Papp [3] [×10⁻⁶ cm/s] | IC50 [4] [µM] | permeability [3] |
| --- | --- | --- | --- | --- | --- |
| CC1=C(C(=O)Nc2nncs2)C(c2ccc(Cl)cc2Cl)N=C(Nc2nc3ccccc3o2)N1 (stereo unspecified) | < 1 | > 30 | < 4.9 | 6.11 | – |
| CC1=C(C(=O)Nc2cc(C(=O)O)ccn2)C(c2ccccc2Cl)N=C(Nc2nc3ccccc3o2)N1C(=O)c1ccccc1 (stereo unspecified) | 73.9 (≈ 122 µM) | > 30 | < 1 | 7.69 | – |
| CC1=C(C(=O)NCc2cccc(C(=O)O)c2)C(c2ccccc2Cl)N=C(Nc2nc3ccccc3o2)N1 (stereo unspecified) | 60.6 (≈ 117 µM) | > 30 | < 1.3 | 19.3 | – |
| CC1=C(C(=O)Nc2cc(C(=O)O)ccn2)C(c2cccc(N)c2Cl)N=C(Nc2nc3ccc(F)cc3o2)N1 (stereo unspecified) | > 79 | > 30 | < 1 | 17.2 | – |
| CC1=C(C(=O)NCCN(C)C)C(c2ccccc2Cl)N=C(Nc2nc3ccccc3o2)N1 (stereo unspecified) | > 67 | > 30 | > 1230 | 15.3 | – |
| CC1=C(C(=O)Nc2cc(C(=O)O)ccn2)C(c2ccc(C)cc2Cl)N=C(Nc2nc3c(o2)CCCC3)N1 (stereo unspecified) | > 52 | > 30 | < 1.8 | 4.32 | – |
| CC1=C(C(=O)NCc2ccc(C(=O)O)cc2)C(c2ccccc2Cl)N=C(Nc2nc3ccccc3o2)N1 (stereo unspecified) | 47 (≈ 91.1 µM) | > 30 | < 1 | 10.9 | – |
| CC1=C(C(=O)Nc2cc(C(=O)O)ccn2)[C@@H](c2ccccc2Cl)N=C(Nc2nc3ccc(F)cc3o2)N1 | 17.3 (≈ 33.2 µM) | > 30 | < 1 | 13.7 | – |
| CC1=C(C(=O)Nc2cc(-c3nn[nH]n3)ccn2)C(c2ccc(C)cc2Cl)N=C(Nc2nc3ccc(F)cc3o2)N1 (stereo unspecified) | < 1 | > 30 | < 1 | 9.68 | – |
| CC1=C(C(=O)Nc2cc(C#N)ccn2)C(c2ccccc2Cl)N=C(Nc2nc3ccc(F)cc3o2)N1 (stereo unspecified) | < 1 | > 30 | < 6.8 | 4.85 | – |
| COP(=O)(OC)C1=C(C)NC(Nc2nc3ccccc3o2)=NC1c1ccccc1Cl (stereo unspecified) | 12.2 (≈ 27.3 µM) | 5.35 | – | 13.7 | 1813.86 10^-6 cm/s |
| O=C1CC(C(=O)Nc2nncs2)CC2=C1C(c1ccccc1Cl)N=C(Nc1nc3ccccc3o1)N2 (stereo unspecified) | 1.23 (≈ 2.37 µM) | > 30 | < 5 | 12.2 | – |
| O=C1CC(C(=O)O)CC2=C1C(c1ccccc1Cl)N=C(Nc1nc3ccccc3o1)N2 (stereo unspecified) | 52.6 (≈ 120 µM) | > 30 | < 1 | 6.85 | – |
| CC1=C(C(=O)Nc2cc(C(=O)O)ccn2)C(c2ccc(C#N)cc2Cl)N=C(Nc2nc3ccc(F)cc3o2)N1 (stereo unspecified) | > 81 | > 30 | < 1 | 3.85 | – |
| CC1=C(C(=O)Nc2cc(C(=O)O)ccn2)C(c2ccc(C(F)(F)F)cc2Cl)N=C(Nc2nc3ccc(F)cc3o2)N1 (stereo unspecified) | 19.4 (≈ 32.9 µM) | > 30 | < 1 | 10.9 | – |
| CC1=C(C(=O)Nc2cc(C(=O)O)ccn2)[C@@H](c2ccccc2Cl)N=C(Nc2nc3cccc(N)c3o2)N1 | > 76 | > 30 | < 1.3 | 34.4 | – |
| CC1=C(C(=O)Nc2cc(C(=O)O)ccn2)C(c2ccc(C(=O)O)cc2Cl)N=C(Nc2nc3ccc(F)cc3o2)N1 (stereo unspecified) | > 83 | > 30 | < 1 | 15.3 | – |
| O=C1CC(C(=O)NCCO)CC2=C1C(c1ccccc1Cl)N=C(Nc1nc3ccccc3o1)N2 (stereo unspecified) | 29 (≈ 60.4 µM) | > 30 | < 2 | 5.44 | – |
| CC1=C(C(=O)Nc2cccc(-c3nnn[nH]3)c2)C(c2ccccc2Cl)N=C(Nc2nc3ccccc3o2)N1 (stereo unspecified) | 47.5 (≈ 90.3 µM) | > 30 | 5 | 34.4 | – |
| O=C1CC(C(=O)N2CCNCC2)CC2=C1C(c1ccccc1Cl)N=C(Nc1nc3ccccc3o1)N2 (stereo unspecified) | 23.9 (≈ 47.3 µM) | 30 | < 4.7 | 7.69 | – |

| SMILES | solubility kinetic [1] [µg/mL] | half-life [2] [min] | Papp [3] [×10⁻⁶ cm/s] | IC50 [4] [µM] | permeability [3] |
| --- | --- | --- | --- | --- | --- |
| COc1ccc2nc(NC3=NC(c4ccccc4Cl)C(C(=O)Nc4cc(C(=O)O)ccn4)=C(C)N3)oc2c1 (stereo unspecified) | > 79 | > 30 | < 1 | 21.7 | – |
| CC1=C(C(=O)Nc2nncs2)C(c2nn(C)cc2Br)N=C(Nc2nc3ccccc3o2)N1 (stereo unspecified) | 6.4 (≈ 12.4 µM) | > 30 | – | 19.3 | 1044 10^-6 cm/s |
| CN(C)CCNC(=O)C1CC(=O)C2=C(C1)NC(Nc1nc3ccccc3o1)=NC2c1ccccc1Cl (stereo unspecified) | 61.8 (≈ 122 µM) | > 30 | < 9.8 | 12.2 | – |
| CC1=C(C(=O)Nc2cc(C(=O)O)ccn2)C(c2ccc(-c3ccc(C(F)(F)F)nc3)cc2Cl)N=C(Nc2nc3ccc(F)cc3o2)N1 (stereo unspecified) | 28.6 (≈ 42.9 µM) | > 30 | < 1 | 3.85 | – |
| CC1=C(C(=O)NCc2cccnc2)C(c2ccccc2Cl)N=C(Nc2nc3ccccc3o2)N1 (stereo unspecified) | < 1 | 1.58 | – | 19.3 | 1248.8 10^-6 cm/s |
| CC1=C(C(=O)NCc2ccccc2CO)C(c2ccccc2Cl)N=C(Nc2nc3ccccc3o2)N1 (stereo unspecified) | < 1 | 5.09 | – | 15.3 | 1362.3 10^-6 cm/s |
| CC1=C(C(=O)Nc2ccc(C(=O)O)nc2)C(c2ccccc2Cl)N=C(Nc2nc3ccccc3o2)N1 (stereo unspecified) | 24.6 (≈ 48.9 µM) | > 30 | < 1 | 9.68 | – |
| CC1=C(C(=O)Nc2nncs2)C(c2ccc(C)cc2Cl)N=C(Nc2nc3ccccc3o2)N1 (stereo unspecified) | < 1 | > 30 | < 14.4 | 6.11 | – |
| CC1=C(C(=O)Nc2cc(C(=O)O)ccn2)C(c2ccc(-c3cnc(C)nc3)cc2Cl)N=C(Nc2nc3ccc(F)cc3o2)N1 (stereo unspecified) | > 90 | > 30 | < 1 | 0.69 | – |
| CC1=C(C(=O)Nc2cc(C(=O)O)ccn2)C(c2ccc(Br)cc2Cl)N=C(Nc2nc3ccc(F)cc3o2)N1 (stereo unspecified) | 2.4 (≈ 4 µM) | > 30 | < 1.7 | 3.85 | – |
| CC1=C(C(=O)Nc2cc(C(=O)O)ccn2)[C@H](c2ccc(C)cc2Cl)N=C(Nc2nc3cccc(N)c3o2)N1 | > 53 | > 30 | < 1 | 1.41 | – |
| CC1=C(C(=O)Nc2cc(-c3nn[nH]n3)ccn2)C(c2ccccc2Cl)N=C(Nc2nc3ccc(F)cc3o2)N1 (stereo unspecified) | 29.9 (≈ 54.9 µM) | > 30 | < 1 | 7.69 | – |
| CC1=C(C(=O)Nc2cc(C(=O)O)ccn2)C(c2cccc([N+](=O)[O-])c2Cl)N=C(Nc2nc3ccc(F)cc3o2)N1 (stereo unspecified) | > 84 | > 30 | < 1 | 34.4 | – |
| COc1ccc([C@H]2N=C(Nc3nc4cccc(N)c4o3)NC(C)=C2C(=O)Nc2cc(C(=O)O)ccn2)c(Cl)c1 | > 81 | > 30 | < 1 | 34.4 | – |
| CCOc1ccc(C2N=C(Nc3nc4ccc(F)cc4o3)NC(C)=C2C(=O)Nc2cc(C(=O)O)ccn2)c(Cl)c1 (stereo unspecified) | 11.3 (≈ 20 µM) | > 30 | < 1 | 3.85 | – |
| CC1=C(C(=O)Nc2cc(C(=O)O)ccn2)C(c2ccccc2Cl)N=C(Nc2nc3c(N)cccc3o2)N1 (stereo unspecified) | > 76 | > 30 | < 1 | 30.6 | – |
| CC1=C(C(=O)Nc2nncs2)C2(CCCC2)N=C(Nc2nc3ccccc3o2)N1 | < 1 | > 30 | < 1 | 19.3 | – |
| CC1=C(C(=O)Nc2ccc(N3CCNCC3)cc2)C(c2ccccc2Cl)N=C(Nc2nc3ccccc3o2)N1 (stereo unspecified) | 2.42 (≈ 4.46 µM) | 8.63 | 894 | 48.5 | – |
| CC1=C(C(=O)Nc2ccc(C#N)cc2)C(c2ccccc2Cl)N=C(Nc2nc3ccccc3o2)N1 (stereo unspecified) | < 1 | 25.3 | < 18.7 | 13.7 | – |
